Reference: PubChem BioAssay (NCI)
“And” between values parts separate entries of the source, which are not always exact repeats. Equal values may be shown once.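 Interpolation was linear, between the two tested concentrations surrounding the appropriate level; five concentrations were tested over 48 hours in 96-well plates. GI50 marks 50% less growth. TGI is the concentration that stops growth completely.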

What was measured:
Assay in all cases: NCI tumour cell line growth inhibition, 48 h
[1] = tested on: U251 CNS
[2] = tested on: PC-3 prostate
[3] = tested on: NCI/ADR-RES ovarian
[4] = tested on: HCC-2998 colon
[5] = tested on: SF-268 CNS
[6] = tested on: ACHN renal
[7] = tested on: HOP-92 NSCLC
[8] = tested on: T-47D breast
[9] = tested on: SF-539 CNS
[10] = tested on: 786-0 renal

SMILES: O=c1c2c(=NCCN3CCCC3)cc3c(=O)n(CCCN4CCOCC4)c(=O)c4ccc(c(O)n1CCCN1CCOCC1)c2c4-3
- GI50 [1]: 0.11 µM
- TGI [1]: 1.95 µM
- GI50 [2]: 0.0919 µM
- TGI [2]: 0.638 µM
- GI50 [3]: 0.166 µM
- TGI [3]: 12 µM
- GI50 [4]: 0.0603 µM
- TGI [4]: 0.563 µM
- GI50 [5]: 0.165 µM
- TGI [5]: 0.751 µM
- GI50 [6]: 0.0909 µM
- TGI [6]: 1.51 µM
- GI50 [7]: 0.129 µM
- TGI [7]: 0.607 µM
- GI50 [8]: 0.273 µM
- TGI [8]: 2.2 µM
- GI50 [9]: 0.345 µM
- TGI [9]: 1.43 µM
- GI50 [10]: 0.145 µM
- TGI [10]: 1.1 µM

SMILES: O=C1/C(=C/c2ccc(Cl)cc2)CN(C(=O)CCN2CCC(=NO)CC2)C/C1=C\c1ccc(Cl)cc1
- GI50 [1]: 0.53 µM
- TGI [1]: 1.28 µM
- GI50 [2]: 0.481 µM
- TGI [2]: 1.57 µM
- GI50 [3]: 0.93 µM
- TGI [3]: 3.75 µM
- GI50 [4]: 0.699 µM
- TGI [4]: 1.88 µM
- GI50 [5]: 0.942 µM
- TGI [5]: 2.98 µM
- GI50 [6]: 0.557 µM
- TGI [6]: 1.56 µM
- GI50 [7]: 1.64 µM
- TGI [7]: 3.54 µM
- GI50 [8]: 1.08 µM
- TGI [8]: 4.26 µM
- GI50 [9]: 1.21 µM
- TGI [9]: 2.55 µM
- GI50 [10]: 0.786 µM
- TGI [10]: 2.12 µM

SMILES: CC(=O)Nc1ccc(-c2csc(Nc3cccc(-c4csc(-c5ccccc5)n4)c3)n2)cc1
- GI50 [1]: 10.4 µM
- TGI [1]: > 50 µM
- GI50 [2]: 14.7 µM
- TGI [2]: > 50 µM
- GI50 [3]: 17.5 µM
- TGI [3]: > 50 µM
- GI50 [4]: 12.5 µM
- TGI [4]: > 50 µM
- GI50 [5]: 20 µM
- TGI [5]: > 50 µM
- GI50 [6]: 8.3 µM
- TGI [6]: 27.5 µM
- GI50 [7]: 42.9 µM
- TGI [7]: > 50 µM
- GI50 [8]: 43.4 µM
- TGI [8]: > 50 µM
- GI50 [9]: 23.3 µM
- TGI [9]: > 50 µM
- GI50 [10]: 21 µM
- TGI [10]: > 50 µM

SMILES: Nc1nccc2c1ccn2-c1cccc(NC(=O)c2ccc(N3CCOCC3)c(C(F)(F)F)c2)c1
- GI50 [1]: 0.664 µM
- TGI [1]: 9.35 µM
- GI50 [2]: 0.565 µM
- TGI [2]: 15 µM
- GI50 [3]: 0.361 µM
- TGI [3]: > 10.2 µM
- GI50 [4]: 1.63 µM
- TGI [4]: > 44.5 µM
- GI50 [5]: 1.21 µM
- TGI [5]: > 46.7 µM
- GI50 [6]: 0.826 µM
- TGI [6]: 11.5 µM
- GI50 [7]: 0.347 µM
- TGI [7]: 3.23 µM
- GI50 [8]: 1.98 µM
- TGI [8]: 29.9 µM
- GI50 [9]: 1.02 µM
- TGI [9]: 4 µM
- GI50 [10]: 0.905 µM
- TGI [10]: 2.58 µM

SMILES: CCOC(=O)c1ccccc1SC(C[N+](=O)[O-])c1ccccc1 (stereo not drawn)
- GI50 [1]: 12 µM
- TGI [1]: 24.7 µM
- GI50 [2]: 4.4 µM
- TGI [2]: 16.6 µM
- GI50 [3]: 22.5 µM
- TGI [3]: 64.1 µM
- GI50 [4]: 1.86 µM
- TGI [4]: 3.36 µM
- GI50 [5]: 6.06 µM
- TGI [5]: 19.2 µM
- GI50 [6]: 2.02 µM
- TGI [6]: 4.51 µM
- GI50 [7]: 6.94 µM
- TGI [7]: 21.9 µM
- GI50 [8]: 5.32 µM
- TGI [8]: 42.6 µM
- GI50 [9]: 3.23 µM
- TGI [9]: 12 µM
- GI50 [10]: 2.23 µM
- TGI [10]: 4.97 µM

SMILES: c1ccc2cc(C[n+]3ccn(Cc4ccc5ccccc5n4)c3)ccc2c1
- GI50 [1]: 0.406 µM and 3.19 µM
- TGI [1]: 12.4 µM and 15.2 µM
- GI50 [2]: 0.342 µM and 2.39 µM
- TGI [2]: 3.18 µM and 13.9 µM
- GI50 [3]: > 100 µM
- TGI [3]: > 100 µM
- GI50 [4]: 0.389 µM and 2.65 µM
- TGI [4]: 3.76 µM and 12.7 µM
- GI50 [5]: 0.434 µM and 3.79 µM
- TGI [5]: 11.3 µM and 18.3 µM
- GI50 [6]: 5.54 µM
- TGI [6]: 18.5 µM
- GI50 [7]: 0.184 µM and 1.66 µM
- GI50 [8]: 0.239 µM and 2.32 µM
- GI50 [9]: 0.421 µM and 2.72 µM
- TGI [9]: 11.4 µM and 13.8 µM
- GI50 [10]: 2.73 µM and 10.6 µM
- TGI [10]: 13 µM and 24.8 µM

SMILES: CC[C@H](C)[C@H](NC(=O)NC(C)(C)C)C(=O)N(C)[C@H](C[C@@H](OC(C)=O)c1nc(C(=O)N[C@@H](Cc2ccccc2)C[C@H](C)C(=O)OC)cs1)C(C)C
- GI50 [1]: 0.82 µM
- TGI [1]: > 25 µM
- GI50 [2]: 0.924 µM
- TGI [2]: > 25 µM
- GI50 [3]: 1.79 µM
- TGI [3]: 24.9 µM
- GI50 [4]: 0.507 µM
- TGI [4]: > 25 µM
- GI50 [5]: 0.867 µM
- TGI [5]: > 25 µM
- GI50 [6]: 1.15 µM
- TGI [6]: > 25 µM
- GI50 [7]: 3 µM
- TGI [7]: > 25 µM
- GI50 [8]: > 19 µM
- TGI [8]: > 25 µM
- GI50 [9]: 0.628 µM
- TGI [9]: 1.82 µM
- GI50 [10]: 0.609 µM
- TGI [10]: 4.59 µM

SMILES: O=C(Cc1ccc(Nc2ccnc(C(F)(F)F)c2)cc1)Nc1cc(Cl)ccc1O
- GI50 [1]: 6.46 µM
- TGI [1]: 23.6 µM
- GI50 [2]: 2.58 µM
- TGI [2]: 12.4 µM
- GI50 [3]: 3.46 µM
- TGI [3]: 24.5 µM
- GI50 [4]: 13.6 µM
- TGI [4]: 28.4 µM
- GI50 [5]: 8.39 µM
- TGI [5]: 31.5 µM
- GI50 [6]: 4.44 µM
- TGI [6]: 44.2 µM
- GI50 [7]: 1.96 µM
- TGI [7]: 8.44 µM
- GI50 [8]: 2.77 µM
- TGI [8]: 11.3 µM
- GI50 [9]: 7.18 µM
- TGI [9]: 22 µM
- GI50 [10]: 21.3 µM
- TGI [10]: 58.6 µM

SMILES: O=C(c1ccco1)c1nc2cc(C(F)(F)F)ccc2[n+]([O-])c1C(F)(F)F
- GI50 [1]: 37 µM
- TGI [1]: > 100 µM
- GI50 [2]: 43.3 µM
- TGI [2]: > 100 µM
- GI50 [3]: 32.4 µM
- TGI [3]: > 100 µM
- GI50 [4]: > 100 µM
- TGI [4]: > 100 µM
- GI50 [5]: 52.4 µM
- TGI [5]: > 100 µM
- GI50 [6]: 47.1 µM
- TGI [6]: > 100 µM
- GI50 [7]: 36.7 µM
- TGI [7]: > 100 µM
- GI50 [8]: 19.2 µM
- TGI [8]: > 100 µM
- GI50 [9]: 81.8 µM
- TGI [9]: > 100 µM
- GI50 [10]: 83.6 µM
- TGI [10]: > 100 µM

SMILES: Oc1ccc(Oc2cnc3cc(Cl)ccc3n2)cc1
- GI50 [1]: 54.7 µM
- TGI [1]: > 100 µM
- GI50 [2]: 23.6 µM
- TGI [2]: > 100 µM
- GI50 [3]: 35.7 µM
- TGI [3]: > 100 µM
- GI50 [4]: 24.1 µM
- TGI [4]: 61.6 µM
- GI50 [5]: 14.8 µM
- TGI [5]: > 100 µM
- GI50 [6]: 36.3 µM
- TGI [6]: > 100 µM
- GI50 [7]: 37.3 µM
- TGI [7]: > 100 µM
- GI50 [8]: 32.8 µM
- TGI [8]: > 100 µM
- GI50 [9]: 49.4 µM
- TGI [9]: > 100 µM
- GI50 [10]: 31 µM
- TGI [10]: > 100 µM

SMILES: O=C1NC(=O)[C@@H](c2c[nH]c3ccccc23)[C@@H]1c1c[nH]c2ccccc12
- GI50 [1]: > 25 µM
- TGI [1]: > 25 µM
- GI50 [2]: > 25 µM
- TGI [2]: > 25 µM
- GI50 [3]: > 25 µM
- TGI [3]: > 25 µM
- GI50 [4]: > 25 µM
- TGI [4]: > 25 µM
- GI50 [5]: > 25 µM
- TGI [5]: > 25 µM
- GI50 [6]: > 25 µM
- TGI [6]: > 25 µM
- GI50 [7]: 21.2 µM
- TGI [7]: > 25 µM
- GI50 [8]: > 25 µM
- TGI [8]: > 25 µM
- GI50 [9]: > 25 µM
- TGI [9]: > 25 µM
- GI50 [10]: > 25 µM
- TGI [10]: > 25 µM

SMILES: CN(C)c1ccc2cc3ccc(N(C)C)cc3nc2c1
- TGI [1]: 5.79 µM
- TGI [2]: 9.48 µM
- TGI [3]: 5.06 µM
- TGI [4]: 2.64 µM
- TGI [5]: 6.26 µM
- TGI [6]: 3.67 µM
- TGI [7]: 20 µM
- TGI [8]: 36.4 µM
- TGI [9]: 6.53 µM
- TGI [10]: 2.26 µM
